# Measurements as given in US20130317046A1, “USE OF A DPP-4 INHIBITOR IN AUTOIMMUNE DIABETES, PARTICULARLY LADA” (BOEHRINGER INGELHEIM INTERNATIONAL GMBH, priority 2012, published 2013).
# Marks after values point to notes of the source that are not given here.
# Experiments:
# [1] = Pharmacokinetics of BI 1356 after multiple oral doses once daily for 12 days in patients with type 2 diabetes; settings: for feT,ss: steady state (Day 12); for feT,ss / fe0-24: gMean; for fe0-24: fraction excreted in urine
# [2] = Safety and tolerability in people with type 2 diabetes
# [3] = tested on: β-cell function; experiment: Fasting C-peptide (β-cell function) in GAD65+ LADA patients, two year double-blind randomized study linagliptin versus glimepiride on metformin; assay type: in vivo, human; design: Follow-up C-peptide / ΔC-peptide / Baseline C-peptide: unit not given here; settings: for Follow-up C-peptide / ΔC-peptide / Baseline C-peptide: fasting, GAD+ patients; for Follow-up C-peptide: 52 weeks; for Follow-up C-peptide / Baseline C-peptide: lina 5 mg/d, glim 1-4 mg/d, on metformin
# Method: (§1) β-Cell function in latent autoimmune diabetes in adults (LADA) treated with linagliptin versus glimepiride: exploratory results from a two year double-blind, randomized, controlled study:
# (§2) It is compared the impact of treatment with the DPP4-inhibitor linagliptin (lina) 5 mg/d and the sulphonylurea glimepiride (glim) 1-4 mg/d on β-cell function in patients retrospectively identified with LADA who had insufficient glycaemic control despite metformin therapy in a two year study.
# (§3) Patients were classified as LADA if one or more of the autoantibodies assessed (GAD65, ICA, IA-2A, IAA) were present at baseline or any on-treatment visit. GAD was assessed using RIA methodology (cut-off 0.05 [sensitivity 82%/specificity 98.89% in the Diabetes Autoantibody Standardization Program 2010]).
# (§4) The study cohort comprised 1519 patients (16 countries), with assumed common T2D. The prevalence of LADA was 7.8% (n=118). GAD65 was the most prevalent autoantibody (6.5%) whereas ICA (0.3%), IA-2A (1.2%) and IAA (0.2%) were rare. Proportion of patients with 2 positive antibodies was 0.4%. Baseline characteristics in GAD65+LADA patients treated with lina (n=65) or glim (n=53) were fairly well balanced (respective age 59/63 yrs, BMI 30.3/31.7 kg/m2 and diabetes duration >5 years 62%/59%).
# (§5) HbA1c reductions were of similar magnitude in the groups.
# [4] = 2 h postprandial blood glucose excursions in patients with type 2 diabetes; assay type: in vivo, human; settings: Day 1, doses ≧2.5 mg
# [5] = HbA1c in GAD65+ LADA patients, two year double-blind randomized study linagliptin versus glimepiride on metformin; assay type: in vivo, human; settings: GAD+ patients
# Method: as §1, §2, §3, §4, §5
# [6] = change from baseline at 28 weeks
# [7] = change from baseline at 52 weeks
# [8] = change from baseline at 104 weeks
SMILES,Follow-up C-peptide [3],"ΔC-peptide [3, 6]","ΔC-peptide [3, 7]","ΔC-peptide [3, 8]",Baseline C-peptide ([3]; subset followed to 28 weeks),Baseline C-peptide ([3]; subset followed to 52 weeks),Baseline C-peptide ([3]; subset followed to 104 weeks),"ΔHbA1c [5, 6]","ΔHbA1c [5, 7]","ΔHbA1c [5, 8]",Baseline HbA1c ([5]; subset followed to 28 weeks),Baseline HbA1c ([5]; subset followed to 52 weeks),Baseline HbA1c ([5]; subset followed to 104 weeks),other results
"CC#CCn1c(N2CCC[C@@H](N)C2)nc2c1c(=O)n(Cc1nc(C)c3ccccc3n1)c(=O)n2C [BI 1356, 1-[(4-methyl-quinazolin-2-yl)methyl]-3-methyl-7-(2-butyn-1-yl)-8-(3-(R)-amino-piperidin-1-yl)-xanthine]",978,+96***##,+143***##,+202***,821,835,944,−0.25%,−0.49%,−0.41%,7.62%,7.50%,7.40%,"feT,ss ([1]; 1 mg oral once daily): 3.34%; fe0-24 ([1]; 2.5 mg oral once daily): 0.139%; feT,ss ([1]; 2.5 mg oral once daily): 3.06%; fe0-24 ([1]; 5 mg oral once daily): 0.453%; feT,ss ([1]; 5 mg oral once daily): 6.27%; fe0-24 ([1]; 10 mg oral once daily): 0.919%; feT,ss ([1]; 10 mg oral once daily): 3.22%; mean accumulation ratio RA,AUC ([1]; doses above 1 mg): ≤ 1.4; form and route of excretion ([1]; human, in vivo): primarily excreted unchanged via the bile; excreted via the kidney ([1]; therapeutic oral dose levels): < 7 % of the administered oral dose; main route of excretion ([1]; therapeutic oral dose levels): mainly excreted via the liver; safety and tolerability [2]: placebo-like safety and tolerability; preservation of C-peptide ([3]; GAD65+ patients, over a 2 yr trajectory, versus glim): preserved C-peptide significantly better than those treated with glim; decrease in 2 h postprandial blood glucose excursions [4]: 80%"
"CCC1=C(C)CN(C(=O)NCCc2ccc(S(=O)(=O)NC(=O)N[C@H]3CC[C@H](C)CC3)cc2)C1=O [Glim, glimepiride, reference compound]",1246,−105,−179,−29,1326,1425,1374,−0.75%,−0.52%,−0.49%,7.75%,7.46%,7.40%,–
